# Patent US10183021B2, “sGC stimulators” (Ironwood Pharmaceuticals, Inc., priority 2013, dated 2019)
# Target: soluble guanylate cyclase (sGC) (Homo sapiens (Human), UniProt Q02108+Q02153)
# Test: sGC-HEK-cGMP assay with SNP incubation, LC/MS detection (Example 2A)
# Type: cell-based
# Details: HEK293 cells, 10 μM SNP, LC/MS detection; for Emax: 100% = BAY 41-2272 at 10 μM, read-out: HEK assay Emax - unconstrained (%); for EC50: top of curve not fitted to 100%, read-out: HEK assay EC50 - unconstrained
# Description: Human embryonic kidney cells (HEK293), endogenously expressing soluble guanylate cyclase (sGC), were used to evaluate the activity of test compounds. Compounds stimulating the sGC receptor should cause an increase in the intracellular concentration of cGMP. HEK 293 cells were seeded in Dulbecco's Modification of Eagle's Medium supplemented with fetal bovine serum (10% final) and L-glutamine (2 mM final) in a 200 L volume at a density of 1×10^5 cells/well in a poly-D-lysine coated 96 well flat bottom plate and grown overnight at 37° C. Medium was aspirated and cells were washed with 1× Hank's Buffered Saline Salt Solution (200 μL). Cells were then incubated for 15 minutes at 37° C. with 200 μL of a 0.5 mM 3-isobutyl-1-methylxanthine (IBMX) solution. Test article and sodium nitroprusside solutions (x μM concentration for test article solution and 10 μM concentration for SNP solution; wherein x is one of the following concentrations: 30 μM, 10 μM, 3 μM, 1 μM, 0.3 μM, 0.1 μM, 0.03 μM, 0.01 μM, 0.003 μM, 0.001 μM, 0.0003 μM or 0.0001 μM) were then added to the assay mixture (2 μL each) and the resulting mixture incubated at 37° C. for 10 minutes. After the 10 minute incubation, the assay mixture was aspirated and 0.1M HCl (200 μL) was added to the cells. The plate was incubated at 4° C. for 30 minutes in the 0.1M HCl to stop the reaction and lyse the cells. The plates were then centrifuged at 1,200 g for 5 minutes at room temperature. Supernatants were collected and transferred to a new flat bottom 96 well plate for analysis by HPLC-MS. Vehicle controls were carried out using DMSO (1%) solutions. A known sGC stimulator, BAY 41-2272, was used as the positive control. Samples were diluted with an equal volume of 1 M Ammonium Acetate (pH 7) to neutralize samples for better chromatography. A 2× cGMP standard solution was prepared in 0.1 M HCl and then diluted with an equal volume of 1 M Ammonium Acetate, with the following final concentrations in nM: 1024, 512, 256, 128, 64, 32, 16, 8, 4, 2, 1. cGMP concentrations in the test plates were determined from each sample using the LC/MS conditions shown in Table 2 below and the calculated cGMP standard curve. EC50 values were calculated from concentration-response curves generated with GraphPad Prism Software. Data were normalized to a high control using the following equation: 100*(Sample−Low Control)/(High Control−Low Control), where the low control is the average of 6 samples treated with 1% DMSO, and the high control is the average of 8-12 samples treated with 10 uM BAY 41-2272. Data were fit using a non-linear regression, sigmoidal dose response, 3 parameter fits.
# Chain of soluble guanylate cyclase (sGC) (Q02153 whole entry): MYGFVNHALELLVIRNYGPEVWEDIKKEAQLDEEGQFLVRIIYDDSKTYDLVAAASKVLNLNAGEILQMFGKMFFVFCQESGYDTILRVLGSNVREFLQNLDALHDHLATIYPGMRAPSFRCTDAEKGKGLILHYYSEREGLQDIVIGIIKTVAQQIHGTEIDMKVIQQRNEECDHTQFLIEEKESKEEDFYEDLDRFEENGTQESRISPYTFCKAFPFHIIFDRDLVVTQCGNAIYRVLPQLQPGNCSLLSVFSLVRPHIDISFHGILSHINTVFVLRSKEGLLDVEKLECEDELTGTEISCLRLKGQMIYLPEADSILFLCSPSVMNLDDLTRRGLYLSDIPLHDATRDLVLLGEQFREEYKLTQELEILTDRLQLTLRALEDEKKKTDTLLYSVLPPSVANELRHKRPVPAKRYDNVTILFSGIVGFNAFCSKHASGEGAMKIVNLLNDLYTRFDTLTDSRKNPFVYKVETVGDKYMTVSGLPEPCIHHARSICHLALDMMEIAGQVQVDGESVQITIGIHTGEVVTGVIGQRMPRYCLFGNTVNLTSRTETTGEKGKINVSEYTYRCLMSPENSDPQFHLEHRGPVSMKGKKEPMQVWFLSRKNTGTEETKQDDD
# Chain of soluble guanylate cyclase (sGC) (Q02108 whole entry): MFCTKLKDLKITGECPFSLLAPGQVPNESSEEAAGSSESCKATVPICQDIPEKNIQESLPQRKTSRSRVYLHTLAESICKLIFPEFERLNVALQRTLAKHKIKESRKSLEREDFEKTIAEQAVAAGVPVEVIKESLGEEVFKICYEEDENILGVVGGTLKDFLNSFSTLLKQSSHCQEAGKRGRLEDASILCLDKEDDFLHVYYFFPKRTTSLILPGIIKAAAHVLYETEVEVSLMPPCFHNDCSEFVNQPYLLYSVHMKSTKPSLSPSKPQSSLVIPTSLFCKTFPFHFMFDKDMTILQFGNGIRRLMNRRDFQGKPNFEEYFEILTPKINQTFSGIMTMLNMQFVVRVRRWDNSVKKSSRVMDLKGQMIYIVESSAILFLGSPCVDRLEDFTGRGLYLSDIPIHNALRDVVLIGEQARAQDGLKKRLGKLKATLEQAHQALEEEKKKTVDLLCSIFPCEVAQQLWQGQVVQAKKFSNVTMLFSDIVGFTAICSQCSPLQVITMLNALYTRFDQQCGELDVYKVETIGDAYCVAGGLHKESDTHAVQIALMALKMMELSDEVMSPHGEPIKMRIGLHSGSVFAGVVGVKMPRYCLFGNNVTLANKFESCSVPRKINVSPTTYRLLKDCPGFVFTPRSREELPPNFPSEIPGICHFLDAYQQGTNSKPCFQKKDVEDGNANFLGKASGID
Structure (SMILES),Emax [%],EC50 [nM]
CC(C)(C)Nc1nc(-c2cc(-c3ccon3)n(Cc3ccccc3F)n2)ncc1F [Compound I-65],60 to 80,500 to 1000
O=C(O)C1C2CCC(C2)N1c1nc(-c2cc(-c3ccon3)n(Cc3ccccc3F)n2)ncc1F (stereo not shown) [Compound I-92],60 to 80,1000 to 5000
CCNC(=O)NC1CCCN(c2nc(-c3cc(-c4ccon4)n(Cc4ccccc4F)n3)ncc2F)C1 (stereo not shown) [Compound I-70],80 to 100,100 to 500
CC(C)(C)[C@@H](Nc1nc(-c2cc(-c3ccon3)n(Cc3ccccc3F)n2)ncc1F)C(=O)O [Compound I-148],80 to 100,100 to 500
CC(C)[C@@H](Nc1nc(-c2cc(-c3ccon3)n(Cc3ccccc3F)n2)ncc1F)C(=O)O [Compound I-86],80 to 100,100 to 500
NC1CCCN(c2nc(-c3cc(-c4ccon4)n(Cc4ccccc4F)n3)ncc2F)C1 (stereo not shown) [Compound I-37],60 to 80,1000 to 5000
COC(=O)C1CCCCN1c1nc(-c2cc(-c3ccon3)n(Cc3ccccc3F)n2)ncc1F (stereo not shown) [Compound I-48],60 to 80,1000 to 5000
Fc1ccccc1Cn1nc(-c2ncc(F)c(N3CCC(F)(F)C3)n2)cc1-c1ccon1 [Compound I-63],60 to 80,100 to 500
CC1COCCN1c1nc(-c2cc(-c3ccon3)n(Cc3ccccc3F)n2)ncc1F (stereo not shown) [Compound I-33],60 to 80,100 to 500
CC(C)(C)OC(=O)NC1CCCN(c2nc(-c3cc(-c4ccon4)n(Cc4ccccc4F)n3)ncc2F)C1 (stereo not shown) [Compound I-25],40 to 60,500 to 1000
NC1CCN(c2nc(-c3cc(-c4ccon4)n(Cc4ccccc4F)n3)ncc2F)C1 (stereo not shown) [Compound I-46],60 to 80,1000 to 5000
CC(C)(C)OC(=O)N1CC(Nc2nc(-c3cc(-c4ccon4)n(Cc4ccccc4F)n3)ncc2F)C1 [Compound I-26],60 to 80,100 to 500
CCNC(=O)NC1CN(c2nc(-c3cc(-c4ccon4)n(Cc4ccccc4F)n3)ncc2F)C1 [Compound I-71],60 to 80,100 to 500
O=C1CC2(CCN(c3nc(-c4cc(-c5ccon5)n(Cc5ccccc5F)n4)ncc3F)CC2)CN1 [Compound I-30],80 to 100,100 to 500
Fc1ccccc1Cn1nc(-c2ncc(F)c(N3CCC4(CC3)COC4)n2)cc1-c1ccon1 [Compound I-42],80 to 100,100 to 500
CC1(Nc2nc(-c3cc(-c4ccon4)n(Cc4ccccc4F)n3)ncc2F)CCOCC1 [Compound I-64],80 to 100,1 to 100
CC(C)C[C@@H](C(=O)O)N(C)c1nc(-c2cc(-c3ccon3)n(Cc3ccccc3F)n2)ncc1F [Compound I-137],80 to 100,100 to 500
O=C(O)[C@@H](Nc1nc(-c2cc(-c3ccon3)n(Cc3ccccc3F)n2)ncc1F)c1ccccc1 [Compound I-117],40 to 60,1000 to 5000
NC(=O)C1CCCCN1c1nc(-c2cc(-c3ccon3)n(Cc3ccccc3F)n2)ncc1F (stereo not shown) [Compound I-105],40 to 60,100 to 500
Fc1ccccc1Cn1nc(-c2ncc(F)c(NC3CCCCC3)n2)cc1-c1ccon1 [Compound I-9],80 to 100,100 to 500

# Further lines, results first:
Emax [%],EC50 [nM],Structure (SMILES)
40 to 60,100 to 500,CCOC(=O)CN(Cc1ccccc1)c1nc(-c2cc(-c3ccon3)n(Cc3ccccc3F)n2)ncc1F [Compound I-166]
100 to 120,1 to 100,CN(Cc1cccc(C(=O)O)c1)c1nc(-c2cc(-c3ccon3)n(Cc3ccccc3F)n2)ncc1F [Compound I-274]
80 to 100,1000 to 5000,O=C(O)C(CC(F)(F)F)Nc1nc(-c2cc(-c3ccon3)n(Cc3ccccc3F)n2)ncc1F (stereo not shown) [Compound I-180]
60 to 80,500 to 1000,CCOC(=O)CN(CC(C)C)c1nc(-c2cc(-c3ccon3)n(Cc3ccccc3F)n2)ncc1F [Compound I-205]
80 to 100,1 to 100,O=C(O)C1(c2ccc(F)cc2)CCN(c2nc(-c3cc(-c4ccon4)n(Cc4ccccc4F)n3)ncc2F)CC1 [Compound I-255]
20 to 40,100 to 500,O=C(O)[C@@H](Nc1nc(-c2cc(-c3ccon3)n(Cc3ccccc3F)n2)ncc1F)C1CC1 [Compound I-227]
40 to 60,1000 to 5000,Cc1noc(CN(C)c2nc(-c3cc(-c4ccon4)n(Cc4ccccc4F)n3)ncc2F)n1 [Compound I-223]
60 to 80,1 to 100,CC(C)(F)C(Nc1nc(-c2cc(-c3ccon3)n(Cc3ccccc3F)n2)ncc1F)C(=O)O (stereo not shown) [Compound I-226]
20 to 40,> 10000,O=C(O)CC1CCCN(c2nc(-c3cc(-c4ccon4)n(Cc4ccccc4F)n3)ncc2F)C1 (stereo not shown) [Compound I-229]
80 to 100,100 to 500,O=c1ccc(CNc2nc(-c3cc(-c4ccon4)n(Cc4ccccc4F)n3)ncc2F)c[nH]1 [Compound I-278]
80 to 100,100 to 500,CN(Cc1ccccc1C(=O)O)c1nc(-c2cc(-c3ccon3)n(Cc3ccccc3F)n2)ncc1F [Compound I-279]
40 to 60,1000 to 5000,CN(CCCC(=O)O)c1nc(-c2cc(-c3ccon3)n(Cc3ccccc3F)n2)ncc1F [Compound I-215]
> 120,1000 to 5000,OCC1CNCCN1c1nc(-c2cc(-c3ccon3)n(Cc3ccccc3F)n2)ncc1F (stereo not shown) [Compound I-211]
40 to 60,1000 to 5000,NC1(C(=O)O)CCN(c2nc(-c3cc(-c4ccon4)n(Cc4ccccc4F)n3)ncc2F)CC1 [Compound I-299]
80 to 100,1 to 100,O=C(O)C12CCCC1CN(c1nc(-c3cc(-c4ccon4)n(Cc4ccccc4F)n3)ncc1F)C2 (stereo not shown) [Compound I-208]
40 to 60,5000 to 10000,CS(=O)(=O)CCC(Nc1nc(-c2cc(-c3ccon3)n(Cc3ccccc3F)n2)ncc1F)C(=O)O (stereo not shown) [Compound I-178]
60 to 80,5000 to 10000,CSCCC(Nc1nc(-c2cc(-c3ccon3)n(Cc3ccccc3F)n2)ncc1F)C(=O)O (stereo not shown) [Compound I-199]
60 to 80,100 to 500,CCC(CC)(CNc1nc(-c2cc(-c3ccon3)n(Cc3ccccc3F)n2)ncc1F)C(=O)O [Compound I-217]
60 to 80,1 to 100,CC(C)C(CC(=O)O)N(C)c1nc(-c2cc(-c3ccon3)n(Cc3ccccc3F)n2)ncc1F (stereo not shown) [Compound I-195]
80 to 100,1 to 100,CCOC(=O)CN(C)c1nc(-c2cc(-c3ccon3)n(Cc3ccccc3F)n2)ncc1F [Compound I-167]
60 to 80,100 to 500,CC(C)[C@@H](CNc1nc(-c2cc(-c3ccon3)n(Cc3ccccc3F)n2)ncc1F)C(=O)O [Compound I-173]
80 to 100,100 to 500,O=C(O)CCC1CCN(c2nc(-c3cc(-c4ccon4)n(Cc4ccccc4F)n3)ncc2F)CC1 [Compound I-234]
60 to 80,1000 to 5000,CC1CN(c2nc(-c3cc(-c4ccon4)n(Cc4ccccc4F)n3)ncc2F)CCC1C(=O)O (stereo not shown) [Compound I-190]
80 to 100,1 to 100,CN(Cc1ccc(C(=O)O)cc1)c1nc(-c2cc(-c3ccon3)n(Cc3ccccc3F)n2)ncc1F [Compound I-275]
80 to 100,1 to 100,CC(C)[C@H](CC(=O)O)Nc1nc(-c2cc(-c3ccon3)n(Cc3ccccc3F)n2)ncc1F [Compound I-182]
60 to 80,100 to 500,COC(=O)C1(N)CCN(c2nc(-c3cc(-c4ccon4)n(Cc4ccccc4F)n3)ncc2F)CC1 [Compound I-298]
100 to 120,1 to 100,CC(C)[C@@H](C(=O)O)N(C)c1nc(-c2cc(-c3ccon3)n(Cc3cccc(F)c3F)n2)ncc1F [Compound I-235]
60 to 80,1 to 100,CNS(=O)(=O)N1CCN(c2nc(-c3cc(-c4ccon4)n(Cc4ccccc4F)n3)ncc2F)CC1 [Compound I-158]
80 to 100,100 to 500,O=C(O)[C@H]1CC[C@@H](Nc2nc(-c3cc(-c4ccon4)n(Cc4ccccc4F)n3)ncc2F)C1 [Compound I-179]
40 to 60,1000 to 5000,CCOC(=O)CN(c1nc(-c2cc(-c3ccon3)n(Cc3ccccc3F)n2)ncc1F)C1(C)CCOCC1 [Compound I-246]
